# Measured values published in patent US6953786B2, “Compositions comprising plant-derived polyphenolic compounds and inhibitors of reactive oxygen species and methods of using thereof” (The Regents of the University of California, priority 2002, dated 2005).
# Residues, ends and D or L forms follow the SMILES beside them. *: point of attachment. Cbz = O=C(OCc1ccccc1)*; CH2F = FC*
# Columns and labels:
# NF-κB = NF-κB DNA binding activity (EMSA / gel shift); format: cell-based, human; conditions: Mia PACA-2, 72 hours, with serum; DPI 15 μM, trans-resveratrol 100 μM, genistein 100 μM, LY294002 50 μM
# Procedure: In order to determine the role of activated NF-κB in the regulation of apoptosis caused by the polyphenolic compound, the following assay was conducted. BSp73AS cells were cultured for 6 hours and Mia PACA-2 cells were cultured in the absence of serum or growth factors for 24 hours in the absence (controls) or presence of rutin, quercetin, trans-resveratrol, or genistein, each at 100 μM and 20 μM proteosome inhibitor MG-132. Nuclear proteins were isolated and analyzed for NF-κB DNA binding activity with electrophoretic mobility shift assay (EMSA).
# Specifically, aliquots of nuclear extracts with equal amount of protein, about 2 to about 10 μg, were mixed in 20 μl reactions with a buffer comprising 10 mM HEPES (pH 7.6), 50 mM KCl, 0.1 mM EDTA, 1 mM DTT, 10% (vol/vol) glycerol and 3 μg poly[d (I-C)]. After aliquots were equilibrated on ice for 5 minutes, binding reactions were stared by addition of 20-60,000 counts/min (20 fM) of ^32P-labeled DNA probes and allowed to proceed for 25-30 minutes at room temperature or up to 1 hour on ice. The oligonucleotide probe
# containing the κB binding motif (underlined) was annealed to the complementary oligonucleotide with a 5′-G overhang and end-labeled using Klenow DNA polymerase I. The samples were electrophoresed at room temperature in 0.5×TBE buffer (1×TBE 89 mM Tris base, 89 mM boric acid and 2 mM EDTA) on nondenaturing 4.5% polyacrylamide gel at 200 V. Gels were dried and directly analyzed in the PhosphorImager (Molecular Dynamics, Sunnyvale, Calif.). The experiment was repeated twice.
# To study the effects of combinations of DPI and polyphenolic compounds on serum-induced activation of NF-κB and protection from apoptosis, the following assay was conducted. Mia PACA-2 cells were cultured for 72 hours in the presence of serum with or without 100 μM trans-resveratrol, 15 μM DPI, a combination of trans-resveratrol, 100 μM genistein, or a combination of genistein and DPI. NF-κB binding activity was measured in nuclear extracts by gel shift assay as described above.
# To determine the effects of LY29400 and DPI on NF-κB activation, Mia PACA-2 cells were cultured for 72 hours in the presence of serum and 15 μM DPI with or without 50 μM LY294002. NF-κB DNA binding activity was measured in nuclear extracts by gel shift assay as described above.
# Mia PACA-2 cells [1] = assay: Intracellular ROS (H2O2) by flow cytometry of DCF-labeled cells; format: cell-based, human; conditions: Mia PACA-2, 72 hours; DPI 15 μM
# Procedure: To determine the effect of serum in cancer cells, the following assay was conducted. Mia PACA-2 pancreatic cancer cells were cultured for 72 hours in the absence and presence of serum (15% FBS) or 100 ng/ml insulin growth factor-1 (IGF-1). Dichloroflyorescein diocetate (DCF-DA) was used to label the cells. Intracellular H2O2 was measured by flow cytometry of DCF-labeled cells. Intracellular ROS was measured using oxidation-sensitive cell-permeable fluorescent probe, dichlorofluorescein diacetate (DCF-DA) to measure H2O2. See Royall J A, and Ischiropoulos H. (1993) Arch. Biochem. Biophys. 302:348-355. To measure ROS, cells were collected after incubation, washed with PBS, and incubated for 15 minutes with […] DCF-DA. Samples were analyzed by flow cytometry. The amount of DCF-DA fluorescence correlated with the amount of ROS in the cells To determine the effects of serum, IGF-1, polyphenols and inhibitors of ROS on ROS production in cancer cells, the following assay was conducted. Mia PACA-2 cells were cultured for 72 hours in the presence of serum or IGF-1 with or without antioxidants, intracellular superoxide scavenger tiron (10 mM) or NADPH oxidase inhibitor, diphenylene iodonium (DPI, 15 μM) and trans-resveratrol (100 μM), genistein (100 μM), or a combination of polyphenolic compounds and antioxidants. Intracellular H2O2 was measured by flow cytometry of DCF-labeled cells. Mia PACA-2 cells and BSp73AS cells were cultured in Dulbecco's Modified Eagle's Medium supplemented with 10% heat inactivated FBS, penicillin G (100 U/ml) and streptomycin ([…]) in a humidified atmosphere comprising 5% (v/v) CO2. When the cells were 90% confluent they were detached, washed with alternating centrifugation and resuspension, plated and incubated in the same media with or without FBS or IGF-1 and with or without a given polyphenolic compound and with or without a given ROS inhibitor.
# Mia PACA-2 cells [2] = assay: Oligonucleosomal DNA fragmentation by cell death ELISA; format: cell-based, human; conditions: Mia PACA-2, 72 hours, with serum
# Procedure: Mia PACA-2 cells were cultured for 72 hours in the presence of serum with or without 15 μM DPI, 10 mM Tiron, 100 μM genistein, 100 μM or 50 μM trans-resveratrol, or a combination thereof. Oligonucleosomal DNA fragmentation was measured in cell lysates by cell death ELISA.
# Annexin staining was conducted as described above. Cells were collected, washed with PBS, and centrifuged for 10 min at 200×g. DNA fragmentation was determined using Cell Death Detection ELISA Plus kit (Roche Molecular Biochemicals).
# To determine the role of caspases in the effects of combinations of agents on apoptosis, the effects of caspase-3 activity (DEVDase activity) as well as the effect of the broad spectrum caspase inhibitor, Z-VAD, on apoptosis was measured. Specifically, Mia PACA-2 cells were cultured for 72 hours in the presence of serum with or without 100 μM Z-VAD, 15 μM DPI, 100 μM trans-resveratrol, 100 μM genistein, a combination of trans-resveratrol and DPI, and a combination of genistein and DPI. DEVDase activity was measured in whole cell lysates with a fluorimetric assay. DNA fragmentation was measured in cell lysates by cell death ELISA.
# In particular, Mia PACA-2 cells were cultured for 72 hours in the presence of serum with or without 50 μM trans-resveratrol (RS), 15 μM DPI, a combination of DPI and trans-resveratrol (RS+DPI), 10 μM MG-132 alone and in combination with RS, DPI, and RS+DPI. Internucleosomal DNA fragmentation was measured in cell lysates by cell death ELISA.
# Mia PACA-2 cells [3] = assay: Mitochondrial membrane potential, DiOC6(3) retention; format: cell-based, human; conditions: Mia PACA-2, 72 hours, in the presence of serum (FIG. 11)
# Procedure: In order to determine the effects polyphenolic compounds have on mitochondrial membrane potential, the retention of the dye 3,3′-dihexyloxacarbocyanine (DiOC6(3)) was measured as described by Pastorino J G, et al. (1998) J Biol Chem 273:7770-7775, which is herein incorporated by reference. BSp73AS cells were cultured for 6 hours in the absence (control) or presence of 0, 12, 24, 50, and 100 μM quercetin and trans-resveratrol. The cells were loaded with 1 μM DiOC6(3) during the last 30 minutes of treatment with a polyphenolic compound (or vehicle). The cells were then collected and pelleted by centrifugation. The supernatant was removed and the pellet was washed twice with PBS by alternate centrifugation and resuspension. The pellet was then lysed by addition of 1 ml of H2O and homogenized. The concentration of DiOC6(3) was read on a Perkin-Elmer LS-5 fluorescence spectrometer at 488 nm excitation and 500 nm emission. An aliquot of the cells was used for determining the DiOC6(3) fluorescence that was retained by the cells.
# Mia PACA-2 cells were cultured for 72 hours in the presence of serum and trans-resveratrol or genistein in the presence or absence of DPI or Tiron. Mitochondrial membrane potential was measured as described above.
# PARP [4] = assay: PARP proteolysis (Western blot); format: cell-based, human; conditions: Mia PACA-2, 24 hours, 50 μM inhibitor
# Procedure: (§1) BSp73AS cells were cultured for 6 hours and Mia PACA-2 cells were cultured for 24 hours in the presence or absence of 100 μM of each rutin, quercetin or trans-resveratrol and with or without 50 μM of each […]. The cells were washed twice with PBS and lysed by incubating for 20 minutes at 4° C. in lysis buffer comprising 0.15 M NaCl, 50 mM Tris (pH 7.2), 1% deoxycholic acid (wt/vol), 1% Triton X-100 (wt/vol), 0.1% […] (wt/vol) and 1 mM PMSF, as well as 5 μg/ml each of protease inhibitors, pepstatin, leupeptin, chymostatin, antipain, and aprotinin. Then the cell lysates were centrifuged for 20 minutes at 15,000 g at 4° C. The supernatants were separated by 4-20% SDS-PAGE for 2 hours at 120 V using precast Tris-glycine gels and a Mini-Cell gel apparatus (Novex, San Diego, Calif.). Separated proteins were electrophoretically transferred to a nitrocellulose membrane for 2 hours at 30 V using a Novex Blot Module (Novex, San Diego, Calif.). Nonspecific binding was blocked by 1 hour incubation of nitrocellulose membranes in 5% (wt/vol) nonfat dry milk in Tris-buffered saline (TBS; pH 7.5). Blots were then incubated overnight at 4° C. with rabbit polyclonal antibody against poly (ADP-ribose) polymerase (PARP) (Santa Cruz Biotechnology, Santa Cruz, Calif.) (1;3,000) in an antibody buffer comprising (1% (wt/vol) non-fat dry milk in TTBS (0.05% vol/vol) Tween-20 in TBS), washed 3 times with TTBS and finally incubated for 1 hour with a peroxidase-labeled secondary antibody in the antibody buffer. Blots were developed for visualization using ECL detection kit. To test for equal protein loading, the blots were stripped and re-probed with an antibody against tubulin. When processing of a protein was measured, a decrease in unprocessed full-length form was measured concomitantly with the increase in the cleaved, active form. The experiment was repeated 3 times with similar results.
# PARP [5] = assay: PARP proteolysis (Western blot); format: cell-based, rat; conditions: BSp73AS, 6 hours, 50 μM inhibitor
# Procedure: as §1
# caspase-3 = assay: Caspase-3 (DEVDase) activity, fluorogenic assay with DEVD-AMC; format: cell-based, human; conditions: Mia PACA-2, 24 hours; Z-VAD FMK 50 μM (FIG. 12B)
# Procedure: To determine whether a polyphenolic compound activates caspase-3 activity in a time-dependent manner, the following assay was conducted. BSp73AS cells were cultured for 0, 1, 3, and 6 hours and Mia PACA-2 cells were cultured in the absence of serum or growth factors for 0, 1, 4, 6, and 24 hours in the presence of 100 μM or quercetin, trans-resveratrol, rutin, or control. Caspase-3 activity was measured in cell lysates with a fluorogenic assay using DEVD-AMC as a substrate. The results were normalized to the DEVDase activity in untreated cells.
# A fluorimetric assay for caspase-3 activity was conducted. […] Cytosolic protein extracts (supernatants) were collected, protein concentrations were determined and the extracts were aliquoted and stored at −80° C. […] The reaction was started by addition of caspase-3 substrate, the readings were taken at 0, 60, 90, and 120 minutes. Fluorescence was calibrated using a standard curve for AMC. The data were expressed as mol AMC/mg protein/min.
# Mia PACA-2 cells were cultured in the absence of serum or growth factors for 24 hours in the presence or absence of quercetin (100 μM), trans-resveratrol (100 μM), Z-VAD FMK (50 μM), cyclosporin A (5 μM) and/or aristolochic acid (50 μM). […] The reaction was started by addition of caspase-3 substrate, the readings were taken at 0, 60, 90, and 120 minutes. Fluorescence was calibrated using a standard curve for AMC. […] The data were expressed as mol AMC/mg protein/min. […]
# cytochrome c = assay: Mitochondrial cytochrome c release (Western blot); format: cell-based, human; conditions: Mia PACA-2, 24 hours, Z-VAD FMK 50 μM
# Procedure: In order to determine the effects polyphenolic compounds have on mitochondrial cytochrome c release and apoptosis, the following assay was conducted. BSp73AS cells were cultured for 6 hours and Mia PACA-2 cells were cultured in the absence of serum or growth factors for 24 hours in the absence or presence of 100 μM of each rutin, trans-resveratrol, genistein, or quercetin. Cells were washed twice with ice-cold PBS, pH 7.2 and resuspended in extraction buffer, about 500 μl, comprising 20 mM HEPES-KOH (pH 7.0), 10 mM KCl, 1 mM NaEGTA, 2 mM MgCl2, 1 mM EDTA, 1 mM DTT, 250 mM sucrose, 1 mM PMSF and protease inhibitors cocktail as provided above. The lysate was incubated for 30 minutes on ice and then homogenized using a glass dounce (80 strokes). Nuclei were removed by centrifugation at 1,000 g for 10 minutes at 4° C. Supernatant was additionally centrifuged for 1 hour at 100,000 g and the resulting supernatant (cytosolic fraction) and pellet (mitochondrial fraction) were collected separately, subjected to SDS-PAGE, and Western blotting using an antibody against cytochrome c. The experiment was repeated twice with similar results.
# In order to determine the role of the cancer cell's PTP in the effects of the polyphenolic compounds on mitochondrial function, caspase-3 activation and apoptosis, we performed the following experiments. Mia PACA-2 cells were cultured in the absence of serum or growth factors for 24 hours in the presence or absence of quercetin (100 μM), trans-resveratrol (100 μM), Z-VAD FMK (50 μM), cyclosporin A (5 μM) and/or aristolochic acid (50 μM). Cells were collected, washed with ice-cold PBS and resuspended in lysis buffer comprising 0.5% Nonidet P-40 or manufactured by the name IGEPAL CA-630, 0.5 mM EDTA, 150 mM NaCl and 50 mM Tris at pH 7.5. Cell lysates were placed for 30 minutes on a rotator at 4° C. and then centrifuged for 15 minutes at 15,000 g. Cytosolic protein extracts (supernatants) were collected, protein concentrations were determined and the extracts were aliquoted and stored at −80° C. Cytosolic extracts were subjected to SDS-PAGE and Western blot was performed with an antibody against cytochrome c. Blots were then stripped and re-probed with an antibody against tubulin to confirm equal protein loading. The experiment was repeated twice with similar results.
# In order to determine the effect of a combination of trans-resveratrol and quercetin on cytochrome c release and caspase-3 activity, the following was conducted. Mia PACA-2 cells were cultured in the absence of serum or growth factors for 24 hours in the presence or absence of trans-resveratrol (25 μM), quercetin (25 μM), or the combination of trans-resveratrol (25 μM) and quercetin (25 μM). Cytosolic extracts were prepared and subject to SDS-PAGE followed by protein transfer. Immunoblot was performed with an antibody against tubulin to confirm equal protein loading.
smiles,measurement,setting,value
"c1ccc2c(c1)[I+]c1ccccc1-2 [DPI, diphenylene iodonium, reference compound]",NF-κB activation caused by serum,NF-κB,not inhibited
same,"increase in ROS production caused by trans-resveratrol and genistein, effect of DPI",Mia PACA-2 cells [1],prevented
same,oligonucleosomal DNA fragmentation (apoptosis),"Mia PACA-2 cells [2]; DPI 15 μM, Tiron 10 mM, genistein 100 μM, trans-resveratrol 100 or 50 μM",either no or small effects
same,mitochondrial membrane potential,Mia PACA-2 cells [3],markedly depolarized the mitochondrial membrane
"O=S(=O)(O)c1cc(O)c(O)c(S(=O)(=O)O)c1 [Tiron, reference compound]",mitochondrial membrane potential,Mia PACA-2 cells [3],markedly depolarized the mitochondrial membrane
"COC(=O)C[C@H](NC(=O)[C@H](C)NC(=O)[C@@H](NC(=O)OCc1ccccc1)C(C)C)C(=O)CF [Z-VAD, reference compound] (Cbz-Val-Ala-Asp(OMe)-CH2F)",PARP cleavage by quercetin and trans-resveratrol in the presence of caspase inhibitor,PARP [4],cleavage did not occur
same,PARP cleavage by quercetin and trans-resveratrol in the presence of caspase inhibitor,PARP [5],cleavage did not occur
same,"apoptosis (DNA fragmentation) caused by combinations of ROS inhibitor and polyphenolic compound, effect of Z-VAD",Mia PACA-2 cells [2]; Z-VAD 100 μM,inhibits apoptosis caused by the combinations
same,"caspase activity in cells treated with polyphenolic compounds, effect of Z-VAD",caspase-3,blocked caspase activity
same,release of cytochrome c into the cytoplasm in control (untreated) cells,cytochrome c; no serum,inhibited the release of cytochrome c
same,cytosolic cytochrome c release caused by quercetin or trans-resveratrol,cytochrome c; polyphenol 100 μM,had no effect
